Laboratory results as given in US10047345B2, “Culturing of mesenchymal stem cells with FGF4 and nicotinamide” (Gamida-Cell Ltd., priority 2012, dated 2018).
“Also recorded” adds a separate entry of the source.

Legend:
Format in all cases: cell-based, human
[1] = tested on: bone marrow mesenchymal stem cells; experiment: Growth factor secretion into conditioned medium (ELISA); conditions: passage 4, 5 mM NAM, 50 ng/ml FGF4
Method: In some experiments, the adherent cells were cultured with or without nicotinamide and indicated factors, and 24 hours before passage 4, and the medium replaced with medium without fetal bovine serum or FGF4. Medium from MSC cultured as indicated, and depleted of fetal bovine serum and FGF4 24 hours before passage 4 was collected and assayed by ELISA for growth factors and immune-related factors secreted into the medium ([…] HGF, transforming growth factor beta TGF-β, keratinocyte growth factor KGF and interleukin 6 IL-6). ELISA was carried out using solid phase sandwich ELISA kits specific for human KGF (R&D systems, cat#DKG00), IL-6 (R&D systems, cat#D6050), TGF-β1 (R&D systems, cat#DB100B), HGF (R&D systems, cat#DHG00).

[2] = tested on: mesenchymal stem cells; experiment: Expansion of mesenchymal stem cells with growth factors with and without nicotinamide (cumulative cell count); conditions: NAM 5 mM, FGF4 50 ng/ml
Method: Bone marrow derived and adipose tissue derived mesenchymal cells were isolated based on their plastic adherence potential in expansion medium containing: High glucose DMEM and 10% Fetal Bovine Serum (FBS, Hyclone, Logan, Utah, USA) supplemented with 0.05 mg/ml Gentamicin (Sigma) and 2 mM L-glutamine (Biological Industries, Israel). Cells were allowed to adhere for 3-4 days and non-adherent cells were washed out with medium changes. The medium was further exchanged with fresh medium every 3-4 days.
Once adherent cells reached approximately 80-90% confluency, they were detached with 0.25% trypsin-EDTA (Sigma), washed twice in DMEM and 10% Fetal Bovine Serum, with centrifugation, 400 g, 5 minutes, and replated at a 1:2 to 1:1000 dilution under the same culture conditions.
Cell number was measured using Cedex Automated Cell Counter (Innovatis). The cells were diluted 1:2 in Trypan Blue (Sigma) and cell number was measured automatically under microscope. […]
Mesenchymal stem cells were selected and cultured in the presence of particular growth factors (basic fibroblast growth factor—bFGF, heparin binding epidermal growth factor—HB-EGF, fibroblast growth factor 4—FGF-4 and platelet derived growth factor, homodimer, subunit B, PDGF-BB) in the presence and absence of nicotinamide for three or four passages and the number and size of the cells was calculated. […]

[3] = tested on: mesenchymal stem cells; experiment: Surface expression of VCAM1/CD106 and CD54 by FACS; conditions: versus MSCs grown without nicotinamide
Method: Mesenchymal stem cells were isolated using plastic adherence method, as described above and cultured for several passages with fetal bovine serum, ±NAM. The cells were selected in the presence of NAM. At about 80% confluence, adherent cells were collected following trypsin treatment, counted, characterized and re-seeded at a concentration of 1×10^3 cells/cm^2. Following Trypsin treatment the cells were analyzed for CD 106 expression in FACS using anti-human CD 106 PE antibodies. Following Trypsin treatment the cells were analyzed for CD54 expression in FACS using anti-human CD54 antibodies.

[4] = tested on: bone marrow-derived mesenchymal stem cells; experiment: Senescence evaluation assay (beta-galactosidase staining); conditions: 5 passages, 5 mM NAM, X-Gal staining
Method: Cultured MSCs were stained using the Senescence beta-Galactosidase Staining Kit (Cell Signaling). The cells are fixed and stained for detection of beta-Galactosidase activity at pH 6 using X-Gal and incubation overnight in 37° C. in dry incubator.

[5] = tested on: bone marrow derived mesenchymal stem cells; experiment: Seeding, expansion, size and granularity of bone marrow derived MSCs with nicotinamide
Method: Bone marrow derived and adipose tissue derived mesenchymal cells were isolated based on their plastic adherence potential in expansion medium containing: High glucose DMEM and 10% Fetal Bovine Serum (FBS, Hyclone, Logan, Utah, USA) supplemented with 0.05 mg/ml Gentamicin (Sigma) and 2 mM L-glutamine (Biological Industries, Israel). Cells were allowed to adhere for 3-4 days and non-adherent cells were washed out with medium changes. The medium was further exchanged with fresh medium every 3-4 days. Once adherent cells reached approximately 80-90% confluency, they were detached with 0.25% trypsin-EDTA (Sigma), washed twice in DMEM and 10% Fetal Bovine Serum, with centrifugation, 400 g, 5 minutes, and replated at a 1:2 to 1:1000 dilution under the same culture conditions. Cell size was measured using Cedex Automated Cell Counter (Innovatis). The cells were diluted 1:2 in Trypan Blue (Sigma) and cell size was measured automatically under microscope. Following trypsin treatment, the cells were analyzed for granularicity by side scatter FACS. Cell number was measured using Cedex Automated Cell Counter (Innovatis). The cells were diluted 1:2 in Trypan Blue (Sigma) and cell number was measured automatically under microscope. […] At each passage and at each medium exchange, the cultures were supplemented with mesenchymal medium, nicotinamide and growth factors.

[6] = tested on: mesenchymal stem cells; experiment: Large batch and serum batch MSC culture with nicotinamide (cell count)
Method: Cell number was measured using Cedex Automated Cell Counter (Innovatis). The cells were diluted 1:2 in Trypan Blue (Sigma) and cell number was measured automatically under microscope. Mesenchymal stem cells were isolated using plastic adherence method, as described above and cultured for several passages with fetal bovine serum, ±NAM. The cells were selected in the presence of NAM. At about 80% confluence, adherent cells were collected following trypsin treatment, counted, characterized and re-seeded at a concentration of 1×10^3 cells/cm^2.

[7] = tested on: mesenchymal stem cells; experiment: In vitro wound healing assay; conditions: passage 3, 4 days post wound formation
Method: Wound was performed in MSCs cultures at ˜70% confluence using 200 μl or 1000 μl tip. Four days later the cells were fixated using 10% cold Formalin (Sigma) and stained with Harris Hematoxylin (Sigma). The in-vitro wound healing process was evaluated using microscope.

## NC(=O)c1cccnc1 [nicotinamide, Nicotinamide]
[1]
  hepatocyte growth factor (HGF) in conditioned medium: elevated levels
  interleukin 6 (IL-6) secreted into conditioned medium: reduced levels; also recorded: reduction
  keratinocyte growth factor (KGF) in conditioned medium: elevated levels
  transforming growth factor beta (TGF-β) in conditioned medium: elevated levels
[2]
  effect on the ability of FGF4 to increase proliferation of mesenchymal stem cells: potentiating effect
[3]
  CD54 expression: express less CD54
  VCAM1/CD106 expression: express more VCAM1/CD106
[4]
  amount of senescent cells: reduced
[5]
  seeding efficacy (selection) of bone marrow derived MSCs: increased the seeding efficacy
[5]; 0.1 mM nicotinamide, figure not shown
  expansion rate of bone marrow derived MSCs at low nicotinamide concentration: insignificant effect
[5]; identical conditions without nicotinamide as comparison
  cell size and granularity of MSCs versus culture without nicotinamide: smaller and less granular
[5]; nicotinamide added from initiation of culture and at each passage
  doubling time of MSCs: decreased
[6]; large batch culture
  effect on cell count in large batches of MSCs: evident on large batches
[6]; one of two experiments
  dependence of the proliferative effect on serum batch: not dependent on a particular batch of serum
[7]
  wound closure by MSCs: higher ability to perform wound closure
